Patent publication US20260274869A1, “PREPARATION METHODS OF ETHER-BONDED PORPHYRIN DIMER ESTER AND SINOPORPHYRIN SODIUM, PHARMACEUTICAL COMPOSITIONS CONTAINING THEM AND THEIR USES” (SHANGHAI GUANGSHENG BIOPHARMACEUTICAL CO., LTD, priority 2024, published 2026)

Assay: storage stability / shelf life of sinoporphyrin sodium prepared by the method
Format: physicochemical
Details: sinoporphyrin sodium prepared by the disclosed method; storage conditions not given

In the case of `C=Cc1c(C)c2cc3nc(cc4nc(cc5[nH]c(cc1[nH]2)c(C)c5C(C)OC(C)c1c(C)c2cc5[nH]c(cc6nc(cc7nc(cc1[nH]2)C(C)=C7CCC(=O)[O-])C(CCC(=O)[O-])=C6C)c(C)c5C=C)C(C)=C4CCC(=O)[O-])C(CCC(=O)[O-])=C3C.[Na+].[Na+].[Na+].[Na+]` (centres unmarked) [sinoporphyrin sodium, bis[1-[6,7-dipropionatesodium salt-1,3,5,8-tetramethyl-2-vinyl-4-porphyrin]ethyl] ether], the “purity with the extension of storage time (storage stability)” value is reported as “does not decrease significantly” and the shelf life is reported as “more than 24 months”.
